Laboratory results reported in patent US9889129B2, “Method of modulating ribonucleotide reductase” (Case Western Reserve University, priority 2012, dated 2018).
Like-named read-outs stand apart in the source and are kept apart here. One block for each molecule: values may come before it.

Experiments:
[1] = tested on: MDA-MB-231 human breast carcinoma cell line; test: Growth inhibition studies on MDA-MB-231; assay type: cell-based
Description: Growth inhibition studies on MDA-MB-231 human breast carcinoma cell line in the presence of gemcitabine (F2CDP-red) or cis-platin (CDDP-blue) alone (solid lines), or in combination with a non-toxic does of compound 2 (dashed lines).
Growth of the MDA-MB-231 cancer cell line is inhibited by compound 3.

[2] = tested on: A549 non-small cell lung cells; pancreatic cells (Panc-1); colon cells (HCT-116); test: MTT Assay II; assay type: cell-based
Description: We conducted an MTT assay to measure cell metabolism as a surrogate for cell number using A549, Non-Small Cell Lung cells; pancreatic cells (Panc-1); and colon cells (HCT-116).

[3] = tested on: ribonucleotide reductase activity; test: DNA synthesis assay
Description: The IC50 of a drug can be determined by constructing a
dose-response curve and examining the effect of different concentrations of a candidate agent on cell growth and/or ribonucleotide reductase enzyme activity. IC50 values can be calculated for a given compound by determining the concentration needed to inhibit half of the maximum biological response of the compound.

RR = molecular target: T1, RR (Homo sapiens, UniProt P23921); test: RR inhibition by ligands with anticancer properties (Table 4)
T1 sequence (P23921 1-792): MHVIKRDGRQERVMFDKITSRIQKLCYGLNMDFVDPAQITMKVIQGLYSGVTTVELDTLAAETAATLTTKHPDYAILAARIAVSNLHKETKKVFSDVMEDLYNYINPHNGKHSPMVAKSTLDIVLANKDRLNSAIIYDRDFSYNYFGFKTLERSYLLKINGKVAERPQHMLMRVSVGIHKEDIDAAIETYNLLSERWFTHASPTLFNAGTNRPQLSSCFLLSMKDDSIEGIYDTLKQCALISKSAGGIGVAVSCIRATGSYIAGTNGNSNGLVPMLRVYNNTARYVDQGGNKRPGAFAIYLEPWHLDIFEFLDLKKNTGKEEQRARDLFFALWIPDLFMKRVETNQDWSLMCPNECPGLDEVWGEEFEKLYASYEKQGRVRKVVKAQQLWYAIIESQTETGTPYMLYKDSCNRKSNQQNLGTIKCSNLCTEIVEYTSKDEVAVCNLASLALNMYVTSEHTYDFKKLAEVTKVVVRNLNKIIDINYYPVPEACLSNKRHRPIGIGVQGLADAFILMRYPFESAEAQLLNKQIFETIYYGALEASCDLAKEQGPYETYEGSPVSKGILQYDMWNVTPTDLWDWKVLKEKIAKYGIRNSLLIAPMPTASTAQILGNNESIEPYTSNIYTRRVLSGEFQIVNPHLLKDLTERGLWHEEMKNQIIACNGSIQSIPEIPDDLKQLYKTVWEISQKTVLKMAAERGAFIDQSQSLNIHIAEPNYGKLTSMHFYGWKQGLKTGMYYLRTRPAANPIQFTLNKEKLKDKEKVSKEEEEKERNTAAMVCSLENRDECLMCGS

[4] = tested on: A549 non-small cell lung cells; 231 triple negative breast cells; LN229; test: MTT Assay I; assay type: cell-based; details: continuous doses for three days; for IC50: 72 h, range over A549, 231, LN229; for ACTIVITY: A549, 231, LN229
Experimental: We conducted an MTT assay to measure cell metabolism as a surrogate for cell number using A549, Non-Small Cell Lung cells; 231, Triple negative breast cells; and LN229. All values are relative to untreated controls, corrected for any MTT absorbance due to media alone.
The cells were treated with continuous doses of the indicated drugs for three days, at which time the MTT assay was run. The control is listed as a dose of 0.1 uM because we plot on a log scale and wish to avoid taking the log of 0 in the calculations.

[5] = A549, Panc-1, HCT-116, read-out: IC50

SMILES: OC(COc1ccc(OCC(O)CN2CCN(C3c4ccccc4-c4ccccc43)CC2)cc1)CN1CCN(C2c3ccccc3-c3ccccc32)CC1 (stereo not shown) [Compound 2]
effect on cytotoxicity of gemcitabine or cis-platin ([1]; combination with a non-toxic dose of compound 2): increases cytotoxicity of gemcitabine of cis-platin
IC50 [2, 5]: 3000 to 8000 nM

SMILES: O=C(CC1CCCCC1)N/N=C\c1cccc2cccc(O)c12 [Compound 3]
IC50 (RR): 225 nM
cytotoxicity / growth inhibition ([1]; single agent): cytotoxic against human breast carcinoma cells

SMILES: O=C(CCCCCCCCC(=O)N/N=C/c1c(O)ccc2ccccc12)N/N=C/c1c(O)ccc2ccccc12 [Compound 1]
IC50 (RR): 600 to 2000 nM
IC50 [2, 5]: 600 to 2000 nM

SMILES: OC(COc1ccc2c(c1)CCC2)CN1CCN(Cc2ccccc2)CC1 (stereo not shown) [Compound 4]
IC50 (RR): 5000 to 10000 nM

SMILES: OC(COc1ccc(OCC(O)CN2CCN(C3c4ccccc4-c4ccccc43)CC2)cc1)CN1CCN(C2c3ccccc3-c3ccccc32)CC1 (stereo not shown) [Drug 2]
IC50 [4]: 3000 to 12000 nM
ACTIVITY [4]: Shows an extremely dramatic effect.

SMILES: CCCCCCCCCCCCC(=O)NCC(=O)NC(CCCCN)C(=O)OC (stereo not shown) [Compound 5]
IC50 (RR): 5000 to 10000 nM

Second part, led by results:

IC50 [3]: 50000 to 100000 nM
SMILES: Cc1c2c(c(O)c3c(O)ccc(Cl)c13)C(=O)C1(O)C(=O)C(C(=O)O)=C(O)C(N(C)C)C1C2 (stereo not shown) [Drug 4]

IC50 ([2]; A549, Panc-1, HCT-116, read-out: IC50s): 100 to 500 nM
SMILES: Nc1ccn([C@@H]2O[C@H](CO)[C@@H](O)C2(F)F)c(=O)n1 [Gemcitabien, reference compound]

IC50 [4]: 800 to 2000 nM
IC50 [3]: ≤ 1000 nM
ACTIVITY ([3]; DNA synthesis assay, exposed for 2 continuous days): most potent
SMILES: O=C(CCCCCCCCC(=O)N/N=C/c1c(O)ccc2ccccc12)N/N=C/c1c(O)ccc2ccccc12 [Drug 1]
ACTIVITY [4]: Steady effect on all three cell lines
